Data published in patent US9925168B2, “Preparation of micronized particles of an antimuscarinic compound by hydrodynamic cavitation” (CHIESI FARMACEUTICI S.P.A., priority 2016, dated 2018).

Columns and labels:
[1] = Particle size by laser light diffraction (Sympatec Dry Dispersion Size Analyzer); type: physicochemical; design: d[v,10] / d[v,50] / d[v,90]: unit not given here; conditions: for Span: Span=[d(v,0.9)-d(v,0.1)]/d(v,0.5); for d[v,10] / d[v,50] / d[v,90]: average of triplicate
Method: The particle size was determined by Laser light diffraction using the Sympatec Dry Dispersion Size Analyzer (Clausthal-Zellerfeld, Germany).
The powder was dispersed for two measurement conditions at an air pressure of 1 and 4 bar.
The average d[v,10], d[v,50], d[v,90] values were calculated from triplicate measurements. The span was calculated using the following equation: Span=[d(v,0.9)−d(v,0.1)]/d(v,0.5)

[2] = Physical stability (particle size growth) upon storage; type: physicochemical; conditions: at least three months, ambient conditions (22±2° C. and 60% relative humidity)
Text: The physical stability shall be measured by using a Sympatec Dry Dispersion Size Analyzer, while the chemical stability shall be determined according to known method such as HPLC.

## C[N+]1(C)CCC(OC(=O)C(O)(c2ccccc2)C2CCCC2)C1.[Br-] (racemic) [Example 1, (3S,2′R), (3R,2′S)-3-[(Cyclopentylhydroxyphenylacetyl)oxy]-1,1-dimethylpyrrolidinium bromide racemic mixture]
[1]; dispersion pressure 1.0 bar
  Span: 1.50
  d[v,10]: 0.81
  d[v,50]: 4.17
  d[v,90]: 7.05
[1]; dispersion pressure 4.0 bar
  Span: 2.19
  d[v,10]: 0.43
  d[v,50]: 2.29
  d[v,90]: 5.45
[2]
  growth of the particle size upon storage: No significant growth of the particle size
